Results as given in patent publication US11260053B2, “Bile acid recycling inhibitors and satiogens for treatment of diabetes, obesity, and inflammatory gastrointestinal conditions” (Satiogen Pharmaceuticals, Inc., priority 2010, dated 2022).
Where two headings read alike, the source gives them in different places.

What was measured:
GLP-1 = test: Plasma GLP-1 levels in normal rats after oral dosing (Example 8); type: in vivo
Description: 12-week-old male HSD rats were fasted for 16 h and given oral dose of 0, 3, 30, 100 mg/kg of the ASBTI 1-[4-[4-[(4R,5R)-3,3-dibutyl-7-(dimethylamino)-2,3,4,5-tetrahydro-4-hydroxy-1,1-dioxido-1-benzothiepin-5-yl]phenoxy]butyl]4-aza-1-azoniabicyclo[2.2.2]octane methane sulfonate (Synthesized by Nanosyn Inc., CA, USA) or metformin (Control, 0, 3, 30, 100, 300 mg/kg) in saline and a dose of 30 mg/kg sitaglipin in a mixture of valine-pyrrolidine in water (n=5 per group). Blood samples in volume of 0.6 ml for each time point were taken from the caudal vein with a heparinized capillary tube 0, 1, 3 and 5 h after the administration of compounds and plasma GLP-1 level were determined. Aprotinin and 10 μl of DPP-IV inhibitor per ml of blood were used for blood sample preservation during 10 min centrifugation and for storage at −70° C. or below. GLP-1 (Active pM) was tested by Millipore ELISA Kits (Millipore Corporation, 290 Concord Road, Billerica, Mass.).

male db/db mice [1] = test: In vivo assay for reduction in blood glucose levels (Example 7A); settings: for reduction in plasma glucose from baseline: after 6 hours, oral
Description: Male db/db mice 6-7 weeks (approx 30 g) were fasted for 2 h. A combination of (−)-(3R,5R)-trans-3-butyl-3-ethyl-2,3,4,5-tetrahydro-7,8-dimethoxy-5-phenyl-1,4-benzothiazepine1,1-dioxide (Compound 100A) at doses of 0, 0.1, 1, 10, mg/kg in 10% of DMSO-water and 30 mg/kg sitagliptin (DPP-IV inhibitor) in a mixture of valine-pyrrolidine in water was administered orally to male db/db mice (n=7-10 per group). Blood sample (˜1 μl from tail for glucose level testing) was taken at t=−24 h, 0, 60, 180, 240, 300, 360 min and 24 h after administration.

male db/db mice [2] = test: In vivo assay for reduction in blood glucose levels (Example 7B); settings: for reduction in plasma glucose from baseline: after 6 hours, oral, male db/db mice
Description: Male db/db mice 8-9 weeks (approx 40 g) were fasted for 2 h. […] Blood sample (˜1 μl from tail for glucose level testing) was taken at t=−24 h, 0, 1, 3, 4, 5, 6 h and 24 h after administration.

Sprague Dawley rats [3] = settings: 500 mM sodium taurocholate gel, 3 mL per rectum, overnight-fasted rats, 6 hour period
Description: Using a stainless steel dissolving vessel fitted with a propeller stirrer 1 gram of methyl cellulose is dissolved in 100 mL of purified water and stirred for 15 minutes. 5 syringes connected to gavage tubes are then each filled with 3 mL of the composition.
The sodium taurocholate rectal gel described above was rectally administered to 6 conscious overnight-fasted subjects (e.g., Sprague Dawley rats) and the control rectal gel without the sodium taurocholate was rectally administered to 5 conscious overnight-fasted subjects (e.g., Sprague Dawley rats). Each rat was then exposed to pre-weighed food and the cumulative consumption of the food was determined over a 6 hour period by weighing the food after 30 minutes, 60 minutes, 120 minutes, 240 minutes and 360 minutes.

Sprague Dawley rats [4] = test system: Sprague Dawley rats
Description: Using a stainless steel dissolving vessel fitted with a propeller stirrer 1 gram of methyl cellulose is dissolved in 100 mL of purified water and stirred for 15 minutes. 12 syringes connected to gavage tubes are then each filled with 3 mL of the composition.
A 4×4 Latin Square design is used to monitor the effect of the different concentration of taurocholate on the food uptake of overnight-fasted Sprague Dawley rats. Each concentration is tested in triplicate with four rats used per replicate.
The ED50 for inhibition of food intake is obtained by plotting the normalizing the dose response for the anorectic effect of taurocholate to the control data as a log of taurocholate dose vs the percentage of control cumulative intake (FIG. 7).

obese diabetic humans = settings: rectal 0.66, 2.0, 6.66, 20.0 mmoles in 20 ml 1% carboxymethyl cellulose gel, after 100 mg sitagliptin
Description: Studies were undertaken after an overnight fast following administration (8-10 hours prior to bile salt) of 100 mg sitagliptin, a DPP-4 inhibitor that protects GLP-1 from inactivation by proteolysis. […] The taurocholic acid was administered into the rectum by syringe in a total volume of 20 ml of 1% carboxymethyl cellulose gel. Each dose was administered on a different day with at least three days between doses.

diabetic db/db mice = test: Oral ASBTI with DPP-IV inhibitor versus subcutaneous exenatide, blood glucose (Example 9); type: in vivo

For CN(C)C(=N)N=C(N)N [metformin, reference compound], the “plasma GLP-1 levels” value (GLP-1; metformin in combination with 30 mg/kg sitagliptin, oral, FIG. 5) was “elevation in GLP-1 levels”.

With N[C@@H](CC(=O)N1CCn2c(nnc2C(F)(F)F)C1)Cc1cc(F)c(F)cc1F [sitagliptin, (3R)-3-amino-1-[9-(trifluoromethyl)-1,4,7,8-tetrazabicyclo[4.3.0]nona-6,8-dien-4-yl]-4-(2,4,5-trifluorophenyl)butan-1-one, reference compound] the “reduction in plasma glucose from baseline” value (“reduction in plasma glucose” below) (male db/db mice [1]; dose 0 mg/kg of ASBTI with 30 mg/kg sitagliptin, male db/db mice) was 5.5% and the “reduction in plasma glucose” value (male db/db mice [2]; dose 0 mg/kg of ASBTI with 30 mg/kg sitagliptin) was 5.5%.

With C[C@H](CCC(=O)NCCS(=O)(=O)O)[C@H]1CC[C@H]2[C@@H]3[C@H](O)C[C@@H]4C[C@H](O)CC[C@]4(C)[C@H]3C[C@H](O)[C@]12C [taurocholate, taurocholic acid] the “cumulative food intake compared to gel alone” value (Sprague Dawley rats [3]) was “reduced”, the cumulative food intake (Sprague Dawley rats [4]; 50, 150, 500 mM taurocholate gels, 3 mL per rectum, overnight-fasted rats) was “dose dependently related to the quantity of taurocholate administered” and the “ED50 for inhibition of food intake” value (Sprague Dawley rats [4]; 24 hour intake) was 7.2 mmol/rat. For the same compound, the “ED50 for inhibition of food intake” value (Sprague Dawley rats [4]; at 1 hour) was 1.6 mmol/rat, the “ED50 for inhibition of food intake” value (Sprague Dawley rats [4]; at 1 hour, 3 mL doses per rectum) was 528 mM and the “time for which differences in food uptake are maintained” value (Sprague Dawley rats [4]; rectal taurocholate gels, rats) was “at least 24 hours”. The “circulating GLP-1 levels” value (obese diabetic humans) was “increase” and the “circulating PYY levels” value (obese diabetic humans) was “increase”.

With CCCCC1(CCCC)CS(=O)(=O)c2ccc(N(C)C)cc2[C@@H](c2ccc(OCCCC[N+]34CCN(CC3)CC4)cc2)[C@H]1O.CS(=O)(=O)[O-] [Compound 100B, 1-[4-[4-[(4R,5R)-3,3-dibutyl-7-(dimethylamino)-2,3,4,5-tetrahydro-4-hydroxy-1,1-dioxido-1-benzothiepin-5-yl]phenoxy]butyl]4-aza-1-azoniabicyclo[2.2.2]octane methane sulfonate salt] the “change in body weight” value (male db/db mice [2]; 24 h after administration, in combination with sitagliptin, FIG. 8) was “Weight loss”, the plasma glucose levels (male db/db mice [2]; ASBTI alone, db/db mice, FIG. 4) was “lowers plasma glucose levels in dose dependent manner” and the “reduction in plasma glucose” value (male db/db mice [2]; dose 3 mg/kg with 30 mg/kg sitagliptin) was 5.6%. For the same compound, the “reduction in plasma glucose” value (male db/db mice [2]; dose 30 mg/kg with 30 mg/kg sitagliptin) was 15%, the “reduction in plasma glucose” value (male db/db mice [2]; dose 100 mg/kg with 30 mg/kg sitagliptin) was 42.3% and the “elevated blood glucose levels compared to control mice treated with sitagliptin alone or vehicle” value (male db/db mice [2]; single oral administration in combination with 30 mg/kg sitagliptin, FIG. 2) was “dose-dependent reduction”. For the same compound, the “plasma GLP-1 levels” value (GLP-1; ASBTI alone, oral 0, 3, 30, 100 mg/kg, FIG. 6, FIG. 7) was “elevation in GLP-1 levels in a dose-dependent manner”, the “plasma GLP-1 levels” value (GLP-1; ASBTI in combination with 30 mg/kg sitagliptin, oral, FIG. 6, FIG. 7) was “elevation in GLP-1 levels in a dose-dependent manner” and the “blood glucose levels compared with exenatide” value (diabetic db/db mice; 3 hours after dosing, oral, in combination with 30 mg/kg sitagliptin, FIG. 10) was “reduces blood glucose levels more than a single subcutaneous injection of 0.02 mg/kg exenatide”.

CCCC[C@]1(CC)CS(=O)(=O)c2cc(OC)c(OC)cc2[C@@H](c2ccccc2)N1 (relative stereo) [Compound 100A, (−)-(3R,5R)-trans-3-butyl-3-ethyl-2,3,4,5-tetrahydro-7,8-dimethoxy-5-phenyl-1,4-benzothiazepine1,1-dioxide] was tested, and the “change in body weight” value (male db/db mice [1]; 24 h after administration, FIG. 9) was “Weight loss”, the plasma glucose concentrations (male db/db mice [1]; ASBTI alone, male db/db mice, FIG. 1) was “lowers plasma glucose concentrations” and the “reduction in plasma glucose” value (male db/db mice [1]; dose 01 mg/kg (so in the source) with 30 mg/kg sitagliptin, male db/db mice) was 5.6%. For the same compound, the “reduction in plasma glucose” value (male db/db mice [1]; dose 1 mg/kg with 30 mg/kg sitagliptin, male db/db mice) was 15%, the “reduction in plasma glucose” value (male db/db mice [1]; dose 10 mg/kg with 30 mg/kg sitagliptin, male db/db mice) was 42.3% and the “elevated blood glucose levels compared to control mice treated with sitagliptin alone or vehicle” value (male db/db mice [1]; single oral administration in combination with 30 mg/kg sitagliptin, FIG. 1) was “dose-dependent reduction”. For the same compound, the “reduction of plasma glucose levels” value (diabetic db/db mice; 3 hours post-dose, oral 10 mg/kg in combination with 30 mg/kg sitagliptin) was 35%.
